# Assay results from patent US11382889B2, “NRF2 activators for the prevention and/or treatment of axonal degeneration” (priority 2018, dated 2022).
# Where a name gives a salt, the structure may show the parent alone.
# Experiment: Tolerability of dietary DMF in mice (weight, food intake, adverse events)
# Settings: DMF 100 mg/kg/day in chow
# Text: We used male mice of a pure C57BL/6J background. All methods employed in this study were in accordance with the Guide for the Care and Use of Laboratory Animals (Guide, 8th edition, 2011, NIH) and European (2010/63/UE) and Spanish (RD 53/2013) legislation. Experimental protocol had been approved by IDIBELL, IACUC (Institutional Animal Care and Use Committee) and regional authority (3546 DMAH, Generalitat de Catalunya, Spain). IDIBELL animal facility has been accredited by The Association for Assessment and Accreditation of Laboratory Animal Care (AAALAC, Unit 1155). Animals were housed at 22° C. on specific-pathogen free conditions, in a 12-hour light/dark cycle, and ad libitum access to food and water. Cages contained 3 to 5 animals.
# DMF was mixed into AIN-76A chow from Dyets (Bethlehem, Pa., USA) to provide a dose of 100 mg/kg/day. Human equivalent dose would be 8 mg/kg/day ([…] in a typical 60 kg person). This is equivalent to the starting dose of BG-12/Tecfidera that is 120 mg twice a day for MS patients (EMA/204830/2013).
# For the characterization of biochemical signs on adult X-ALD mice, 8-months-old animals were randomly assigned to one of the following dietary groups for 4 months.
# Group I: wild-type (WT) mice received normal AIN-76A chow (n=12); group II: Abcd1^− mice received normal AIN-76A chow (n=12); group III: Abcd1^− mice received AIN-76A chow containing DMF (n=12). To evaluate the effect of DMF on the clinical signs of AMN-like pathology, 12-months-old animals were randomly assigned to one of the following dietary groups for 6 months. Group I: WT mice received normal AIN-76A chow (n=14); group II: Abcd1^−/Abcd2^−/− mice received normal AIN-76A chow (n=16); group III: Abcd1^−/Abcd2^−/− mice received AIN-76A chow containing DMF (n=14).
# [1] = any treatment protocol (4 or 6 months)
smiles,measurement,setting,value
"COC(=O)/C=C/C(=O)OC [DMF, dimethyl fumarate]",adverse events or death during treatment,4 or 6 months,none of the mice administered with DMF experienced any adverse events or death
same,effect on food intake,[1],no effect
same,effect on weight,[1],no effect
